The record followed here is patent publication US12544361B2, “Composition comprising at least one oxazoline for inhibiting the growth of Malassezia yeasts involved in cradle cap, in particular” (Laboratoires Expanscience, priority 2019, dated 2026).

Common to all, as to assay type: cell-based
Test [1] has as its system Malassezia furfur (ATCC 14521). In words: MIC of arabinogalactan and malic acid diester in liquid medium, 96-well plates (GLYcoDiag technology). To be noted: 48 hours at 32.5° C., about 1.30-10^4 cfu/mL per well, strain ATCC 14521. As to the method: The minimum inhibitory concentration (MIC) of arabinogalactan and malic acid diester is carried out using a procedure adapted to liquid media in 96-well plates. The MIC study is conducted using GLYcoDiag technology, using the microbial strain Malassezia furfur (American Type Culture Collection (ATCC) reference 14521) as the organism. The cultures are reconstituted according to the instructions of the collection center supplying the reference strain.
Preparation of samples and test microorganisms: the products are diluted in culture medium at the concentrations defined in the table below.
Analytical controls are prepared and used identically to the sample: • a control corresponding to the microbiological medium alone; and • a control consisting of Phenoxyethanol® prepared at 5% (v/v) directly in the microbiological medium associated with each microbial strain.
In order to determine the MIC of the product, it is tested in serial dilutions of 6 dilutions directly in the culture medium intended to promote the growth of the M. furfur strain (96-well microplates). Then, each dilution point is contaminated with the test strain in an amount of about 1.30-10^4 cfu/mL per well. Finally, the tests are incubated for 48 hours at 32.5° C.±2.5° C., taking care to respect the respiratory type of the strain which is facultative aero-anaerobic. […]

For test [2], the system named is Malassezia furfur (CIP 1634.86). Kind of test: MIC in solid medium by agar dilution method. To be noted: CIP1634, strain CIP 1634.86. Here is the method:
Protocol: the minimum inhibitory concentration (MIC) of a strain of Malassezia furfur (CIP 1634.86) against cycloceramide OX100 is determined in solid medium by agar dilution method according to COURVALIN P., GOLDSTEIN F., PHILIPPON A. and SIROT J.-Fiche technique 5—L'antibiogramme, édition MPC, 1985, p. 199.

The test system of test [3] is Malassezia furfur (ATCC 14521). Kind of test: MIC of cycloceramide OX100 in liquid medium, 96-well plates (GLYcoDiag technology). To be noted: 48 hours at 32.5° C., about 5.20-10^4 cfu/mL per well, strain ATCC 14521. As to the method: The determination of the minimum inhibitory concentration of cycloceramide OX100 is carried out by a procedure adapted to liquid media in 96-well plates. The MIC study is conducted using GLYcoDiag technology, using the microbial strain Malassezia furfur (American Type Culture Collection (ATCC) reference 14521) as the organism. The cultures are reconstituted according to the instructions of the collection center supplying the reference strain.
Preparation of samples and test microorganisms: OX100 cycloceramide is diluted in culture medium to the following concentrations: final concentrations in culture medium (expressed as percentages by volume): 0.25%; 0.125%; 0.0625%; 0.0312%; 0.01562%; 0.0078%.
Analytical controls are prepared and used identically to the sample: • a control corresponding to the microbiological medium alone; • a control consisting of Phenoxyethanol® prepared at 5% (v/v) directly in the microbiological medium associated with each microbial strain.
In order to determine the MIC of cycloceramide OX100, it is tested in serial dilutions of 6 dilutions directly in the culture medium intended to support the growth of the M. furfur strain (96-well microplates). Then, each dilution point is contaminated with the test strain in an amount of about 5.20-10^4 cfu/mL per well. Finally, the tests are incubated for 48 hours at 32.5° C. […]

Converted amounts (≈) assume the structure as drawn.

For “di-C12-C13-alkyl malate [malic acid diester]”, the MIC in test [1] is reported as 1.25 % (v/v).

Turning to `CCCCCCCCCCCC1=NC(C)(C)CO1` [OX100, 2-undecyl-4,4-dimethyl-1,3-oxazoline], the values for the MIC in test [2] and in test [3] were 64 µg/mL (≈ 253 µM) and 0.031 % (v/v), respectively. For the molecule arabinogalactan, in test [1], the MIC is on record as 2.5 % (v/v).
